Results published in patent US20260083864A1, “CONTRAST AGENTS FOR USE IN DIAGNOSTIC COMPUTED TOMOGRAPHY IMAGING” (Bayer Aktiengesellschaft, priority 2022, published 2026).

Legend:
[1] = Water solubility in aqueous buffer; details: aqueous buffer 10 mM Tris-HCl, pH 7.4, 20° C.
Method: The solid compounds were added stepwise to the buffer solution. More substance is added once all the suspended material is dissolved until an equilibrium between undissolved and dissolved substance is reached. The suspension was mixed using a shaker (Heidolph Reax 2000) and treated 5 min in an ultrasound bath (Bandelin, Sonorex Super RK255H).

OATP1B1 = target: T1, OATP1B1 (Homo sapiens, UniProt Q9Y6L6); experiment: Uptake into stable transfected OATP1B1 HEK 293 cells; assay type: cell-based; details: for Inhibition Rifampicine: uptake into OATP1B1-HEK 293 cells; for Uptake into OATP1B1-HEK 293 cells: 40 min incubation, relative to RC1 (Gd-EOB-DTPA)
T1 sequence (Q9Y6L6 1-691): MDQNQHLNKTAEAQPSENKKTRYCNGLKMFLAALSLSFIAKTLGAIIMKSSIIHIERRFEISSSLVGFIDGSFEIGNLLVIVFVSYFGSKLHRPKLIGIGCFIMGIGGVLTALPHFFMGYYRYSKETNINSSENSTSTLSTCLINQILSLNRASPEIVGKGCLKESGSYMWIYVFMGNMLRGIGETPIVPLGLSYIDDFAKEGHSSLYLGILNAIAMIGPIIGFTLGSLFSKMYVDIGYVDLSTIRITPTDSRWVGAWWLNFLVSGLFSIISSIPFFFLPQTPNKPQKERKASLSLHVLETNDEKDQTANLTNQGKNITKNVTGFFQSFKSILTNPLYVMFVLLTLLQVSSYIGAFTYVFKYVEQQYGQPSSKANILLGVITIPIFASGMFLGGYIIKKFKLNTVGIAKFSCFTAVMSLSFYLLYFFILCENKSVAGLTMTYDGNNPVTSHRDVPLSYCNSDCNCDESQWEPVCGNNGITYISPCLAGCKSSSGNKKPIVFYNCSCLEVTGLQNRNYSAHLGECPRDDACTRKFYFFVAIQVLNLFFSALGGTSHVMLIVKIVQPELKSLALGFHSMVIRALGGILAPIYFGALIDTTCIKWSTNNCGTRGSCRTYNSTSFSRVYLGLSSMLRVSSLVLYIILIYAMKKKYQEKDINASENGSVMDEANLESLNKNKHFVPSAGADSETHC
Method: (§1) Cryopreserved cells were shortly thawed in water bath and diluted in 10 mL warm culture medium (37° C.). After medium change the cells were grown for 3d in a 25 cm^2 cell culture flask. After 3 to 5d the cells were transferred into 75 cm^2 flasks. […] All test items were prepared in transport buffer at a final concentration of 100 M from stock solutions (180 to 500 mM concentration). The OATP1B1 HEK 293 cells were incubated with test solutions (test item in transport buffer 500 L) for 40 min on a thermoshaker without shaking (PHMP, Fa. Grant Bio). Triplicates were performed for each test item. After incubation the cells were washed with 2 mL of cold PBS (+) buffer (Dulbeccos PBS+, Fa. Gibco). […] As a reference standard Gd-EOB-DTPA (gadoxetate) is used in the same well plate.

OATP1B3 = target: T2, OATP1B3 (Homo sapiens, UniProt Q9NPD5); experiment: Uptake into stable transfected OATP1B3 HEK 293 cells; assay type: cell-based; details: for Inhibition Rifampicine: uptake into OATP1B3-HEK 293 cells; for Uptake into OATP1B3-HEK 293 cells: 40 min incubation, relative to RC1 (Gd-EOB-DTPA)
T2 sequence (Q9NPD5 1-702): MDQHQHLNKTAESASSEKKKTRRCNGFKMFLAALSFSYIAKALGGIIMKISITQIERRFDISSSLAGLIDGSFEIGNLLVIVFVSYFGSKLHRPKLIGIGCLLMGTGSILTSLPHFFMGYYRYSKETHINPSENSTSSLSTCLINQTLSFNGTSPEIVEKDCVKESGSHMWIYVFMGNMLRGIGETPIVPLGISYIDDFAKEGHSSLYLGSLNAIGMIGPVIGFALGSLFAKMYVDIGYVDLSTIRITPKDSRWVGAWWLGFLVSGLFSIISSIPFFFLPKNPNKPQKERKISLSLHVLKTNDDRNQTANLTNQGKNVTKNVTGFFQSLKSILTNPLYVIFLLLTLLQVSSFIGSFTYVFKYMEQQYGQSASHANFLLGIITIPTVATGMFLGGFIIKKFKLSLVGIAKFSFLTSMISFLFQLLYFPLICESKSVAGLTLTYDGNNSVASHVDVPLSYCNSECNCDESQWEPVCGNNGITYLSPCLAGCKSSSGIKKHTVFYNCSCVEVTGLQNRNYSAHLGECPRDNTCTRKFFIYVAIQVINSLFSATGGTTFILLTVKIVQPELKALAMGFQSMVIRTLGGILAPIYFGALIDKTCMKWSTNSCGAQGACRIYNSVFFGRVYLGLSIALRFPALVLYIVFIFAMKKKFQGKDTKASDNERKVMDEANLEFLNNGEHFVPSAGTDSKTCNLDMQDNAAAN
Method: as §1, with “100 µM” for “100 M”, “The OATP1B3” for “The OATP1B1”, “500 μL)” for “500 L)”

[2] = Relaxivity measurements at 1.41 T in water; assay type: physicochemical; details: 37° C., normalized to Gd
Summary of the method: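 T1 by inversion recovery and T2 by CPMG at 1.41 T (60 MHz), 37° C, relaxation delay ≥5×T1. Three Gd concentrations between 0.05 and 2 mM; relaxivities derived from measured relaxation rates in water.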

[3] = Partition coefficient (log P butanol/buffer); assay type: physicochemical; details: 1-butanol / 50 mM Tris-HCl, pH 7.4, room temperature
[4] = system: freshly isolated rat hepatocytes; experiment: Uptake into freshly isolated rat hepatocytes; details: for Uptake rat hepatocytes: 100 μmol Gd/L, 10 min, 37° C., relative to RC1 (Gd-EOB-DTPA); for Inhibition Rifampicine: rat hepatocyte uptake, test item and Rifampicine 1:1, each 100 μM
[5] = Relaxivity measurements at 1.41 T in human plasma; assay type: physicochemical; details: 37° C., normalized to Gd
Summary of the method: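 T1 determined by inversion recovery (8 inversion-time steps) and T2 by CPMG sequence, both with relaxation delay ≥5×T1. Each relaxivity used three Gd concentrations between 0.05 and 2 mM. Relaxivities were derived from relaxation rates measured in water and plasma.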

SMILES	Solubility [1]	Inhibition Rifampicine (OATP1B1)	Inhibition Rifampicine (OATP1B3)	r1 water [2]	Log P (partition coefficient butanol/buffer) [3]	Uptake rat hepatocytes [4]	Inhibition Rifampicine [4]	r1 human plasma [5]	Uptake into OATP1B1-HEK 293 cells (OATP1B1)	Uptake into OATP1B3-HEK 293 cells (OATP1B3)
CCOCCOCCOc1ccc(CCC[C@H](C(=O)O)N2CCN([C@@H](CO)C(=O)[O-])CCN([C@@H](CO)C(=O)[O-])CCN([C@@H](CO)C(=O)[O-])CC2)cc1.[Gd+3] [Example 18, gadolinium (2S,2'S,2″'S)-2,2′,2″-{10-[(1R)-1-carboxy-4-{4-[2-(2-ethoxyethoxy)ethoxy]phenyl}butyl]-1,4,7,10-tetraazacyclododecane-1,4,7-triyl}tris(3-hydroxypropanoate)]	>354 mM	76 % inhibition	96 % inhibition	5.5 L/mmol/s	−1.11	75 % of RC1	91 % inhibition	7.7 L/mmol/s		
CCCOc1ccc(CCC(C(=O)O)N2CCN(CC(=O)[O-])CCN(CC(=O)[O-])CCN(CC(=O)[O-])CC2)cc1.[Gd+3] (stereo not drawn) [Example 24, gadolinium 2,2′,2″-{10-[1-carboxy-3-(4-propoxyphenyl)propyl]-1,4,7,10-tetraazacyclododecane-1,4,7-triyl}triacetate]	>261 mM	87 % inhibition	94 % inhibition	4.1 L/mmol/s	−0.71	40 % of RC1	96 % inhibition	8.8 L/mmol/s	229 % of RC1	17 % of RC1
CCOCCOc1ccc(CC(C(=O)O)N2CCN(CC(=O)[O-])CCN(CC(=O)[O-])CCN(CC(=O)[O-])CC2)cc1.[Gd+3] (stereo not drawn) [Example 32, gadolinium 2,2′,2″-(10-{1-carboxy-2-[4-(2-ethoxyethoxy)phenyl]ethyl}-1,4,7,10-tetraazacyclododecane-1,4,7-triyl)triacetate]	>198 mM	72 % inhibition	94 % inhibition	4.1 L/mmol/s	−1.53	54 % of RC1	93 % inhibition	6.6 L/mmol/s	147 % of RC1	22 % of RC1
CCOCCOCCOc1ccc(CCC[C@@H](C(=O)O)N2CCN([C@H](CO)C(=O)[O-])CCN([C@H](CO)C(=O)[O-])CCN([C@H](CO)C(=O)[O-])CC2)cc1.[Gd+3] [Example 20, gadolinium (2R,2′R,2″R)-2,2′,2″-{10-[(1S)-1-carboxy-4-{4-[2-(2-ethoxyethoxy)ethoxy]phenyl}butyl]-1,4,7,10-tetraazacyclododecane-1,4,7-triyl}tris(3-hydroxypropanoate)]	>381 mM	87 % inhibition	99 % inhibition	5.6 L/mmol/s	−1.11	71 % of RC1	91 % inhibition	9.8 L/mmol/s		
O=C([O-])CN1CCN(C(Cc2ccc(OCC(F)(F)C(F)F)cc2)C(=O)O)CCN(CC(=O)[O-])CCN([C@@H](CO)C(=O)[O-])CC1.[Gd+3] (mixture of isomers) [Example 33, gadolinium (2S)-2-[4,10-bis(carboxylatomethyl)-7-{1-carboxy-2-[4-(2,2,3,3-tetrafluoropropoxy)phenyl]ethyl}-1,4,7,10-tetraazacyclododecan-1-yl]-3-hydroxypropanoate]	>29 mM	88 % inhibition	98 % inhibition	4.2 L/mmol/s	−0.55	82 % of RC1	94 % inhibition	11.7 L/mmol/s	367 % of RC1	71 % of RC1
O=C([O-])CN1CCN(CC(=O)[O-])CCN([C@H](Cc2ccc(OCC(F)(F)F)cc2)C(=O)O)CCN(CC(=O)[O-])CC1.[Gd+3] [Example 47, gadolinium 2,2′,2″-(10-{(1R)-1-carboxy-2-[4-(2,2,2-trifluoroethoxy)phenyl]ethyl}-1,4,7,10-tetraazacyclododecane-1,4,7-triyl)triacetate]	>229 mM	93 % inhibition	90 % inhibition	3.7 L/mmol/s	−0.77	55 % of RC1	82 % inhibition	7.8 L/mmol/s	13 % of RC1	19 % of RC1
CCCC(C(=O)[O-])N1CCN(CC(=O)[O-])CCN(C(Cc2ccc(OCC)cc2)C(=O)O)CCN(CC(=O)[O-])CC1.[Gd+3] (stereo not drawn) [Example 29, gadolinium 2-{7-[1-carboxy-2-(4-ethoxyphenyl)ethyl]-4,10-bis(carboxylatomethyl)-1,4,7,10-tetraazacyclododecan-1-yl}pentanoate]	>305 mM	96 % inhibition	99 % inhibition	4.4 L/mmol/s	−0.53	87 % of RC1	99 % inhibition	7.5 L/mmol/s	493 % of RC1	75 % of RC1
